Laboratory results from PMC4632086, “Effects and possible mechanisms of action of acacetin on the behavior and eye morphology of Drosophila models of Alzheimer’s disease” (Scientific Reports, 2015).

How the values were obtained:
Assay type in all cases: in vivo, Drosophila melanogaster
GMR < APP/BACE-1 flies [1] = test: Cason's trichrome staining of eye sections (photoreceptor degeneration); conditions: 100, 300, and 500 μM; 5- and 15-day-old males
Description: Cason’s trichrome staining was performed, as described by Wang et al.[33] and Perumalsamy et al.[77]. Briefly, the heads of 5- and 15-day-old male GMR < APP/BACE-1 flies, cultured in vials as stated previously, were fixed in a 4% paraformaldehyde buffer solution (pH 7.4) overnight at 4 °C, and paraffin-embedded preparations of the fly heads were then sectioned at 10 μm thickness using a HM 340E rotary microtome (Thermo Scientific Microm, Walldorf, Germany). The sections were dried at 40 °C overnight, subsequently deparaffinized with CitriSolv (Fisher Scientific, Fair Lawn, NJ, USA), and rehydrated using a series of ethanol solutions in phosphate-buffered saline (PBS). The rehydrated paraffin sections were soaked in Carson’s trichrome solution for 15 min, and the slides were gently swashed in tap water and subsequently rinsed three times in distilled water (DW). The excess water was removed with tissue paper, and the samples were mounted using Vectashield H-1000 mounting medium (Vector Laboratories, Burlingame, CA, USA).

GMR < APP/BACE-1 flies [2] = test: Congo red staining of amyloid plaques in compound eyes; conditions: 5- and 15-day-old flies
Description: Congo red staining was performed to detect the amyloid plaques in the Drosophila AD model. The paraffin-embedded sections described above were deparaffinized and then stained using NovaUltra Special Stain Kits (IHC World, Woodstock, MD, USA) according to the manufacturer’s instructions. Finally, the sections were dehydrated and mounted with mounting medium. The images were observed and captured using an EZ4 HD stereo microscope.

human BACE-1 mRNA = test: Real-time qRT-PCR, human BACE-1 mRNA in elav < APP/BACE-1 flies; conditions: 100, 300, and 500 μM; 20-day-old males
Description: Real-time qRT-PCR with SYBR Green dye was performed to determine whether acacetin affected the expression levels of the human APP and BACE-1 mRNAs in the transgenic flies. The elav < APP/BACE-1 and elav < GFP flies were cultured from the egg stage in vials, as stated previously. The controls received 0.1% DMSO only. The total RNA was extracted from 30 heads (30 mg) of male elav < APP/BACE-1 and elav < GFP flies (20 days old) using the RNeasy Mini Kit (Qiagen, Hilden, Germany) according to the manufacturer’s instructions. The residual genomic DNA was removed using RQ1 RNase-Free DNase (Promega, Fitchburg, WI, USA), and 1 μg of the total RNA from each sample was used for complementary DNA (cDNA) synthesis with an oligo (dT) 12–18 primer (Invitrogen, Carlsbad, CA, USA) according to the protocol of the SuperScript III Reverse Transcriptase Kit. Real-time qRT-PCR was performed in 96-well plates using the StepOne Plus Real-Time PCR System (Applied Biosystems, Darmstadt, Germany). […] The mRNA expression levels of the target genes were normalized to the mRNA expression level of the housekeeping gene rp 49 that encodes the Drosophila ribosomal protein 49, and analyzed by the 2^–ΔΔCT method using the StepOne Software v2.3 and DataAssist Software (Applied Biosystems). The results are expressed as the means ± SEs of duplicate samples from three independent experiments.

SMILES: COc1ccc(-c2cc(=O)c3c(O)cc(O)cc3o2)cc1 [acacetin]
- photoreceptor degeneration (GMR < APP/BACE-1 flies [1]): partially suppressed the photoreceptor degeneration
- amyloid plaque deposits (GMR < APP/BACE-1 flies [2]; 500 μM): a few amyloid plaque deposits were also detected
- number of amyloid deposits (GMR < APP/BACE-1 flies [2]; 100 and 300 μM): significantly suppressed the number of amyloid deposits
- human BACE-1 mRNA levels, % of the control levels (human BACE-1 mRNA): 82–89%
